# Read-outs that look alike come from different tables or passages of the source.
# How the values were obtained:
# [1] = test system: Shionogi mouse mammary carcinoma cells; experiment: Androgenic/antiandrogenic activity: inhibition of DHT-stimulated Shionogi cell number; type: cell-based; details: DHT-stimulated Shionogi cell number
# Human Androgen Receptor = target: T1, Human Androgen Receptor (Homo sapiens, UniProt P10275); experiment: Androgen receptor binding assay ([3H]R1881, HAP) in cytosol of HEK-293 cells transfected with hAR; details: relative to R1881 = 100, transfected cells
# T1 sequence (P10275 1-920): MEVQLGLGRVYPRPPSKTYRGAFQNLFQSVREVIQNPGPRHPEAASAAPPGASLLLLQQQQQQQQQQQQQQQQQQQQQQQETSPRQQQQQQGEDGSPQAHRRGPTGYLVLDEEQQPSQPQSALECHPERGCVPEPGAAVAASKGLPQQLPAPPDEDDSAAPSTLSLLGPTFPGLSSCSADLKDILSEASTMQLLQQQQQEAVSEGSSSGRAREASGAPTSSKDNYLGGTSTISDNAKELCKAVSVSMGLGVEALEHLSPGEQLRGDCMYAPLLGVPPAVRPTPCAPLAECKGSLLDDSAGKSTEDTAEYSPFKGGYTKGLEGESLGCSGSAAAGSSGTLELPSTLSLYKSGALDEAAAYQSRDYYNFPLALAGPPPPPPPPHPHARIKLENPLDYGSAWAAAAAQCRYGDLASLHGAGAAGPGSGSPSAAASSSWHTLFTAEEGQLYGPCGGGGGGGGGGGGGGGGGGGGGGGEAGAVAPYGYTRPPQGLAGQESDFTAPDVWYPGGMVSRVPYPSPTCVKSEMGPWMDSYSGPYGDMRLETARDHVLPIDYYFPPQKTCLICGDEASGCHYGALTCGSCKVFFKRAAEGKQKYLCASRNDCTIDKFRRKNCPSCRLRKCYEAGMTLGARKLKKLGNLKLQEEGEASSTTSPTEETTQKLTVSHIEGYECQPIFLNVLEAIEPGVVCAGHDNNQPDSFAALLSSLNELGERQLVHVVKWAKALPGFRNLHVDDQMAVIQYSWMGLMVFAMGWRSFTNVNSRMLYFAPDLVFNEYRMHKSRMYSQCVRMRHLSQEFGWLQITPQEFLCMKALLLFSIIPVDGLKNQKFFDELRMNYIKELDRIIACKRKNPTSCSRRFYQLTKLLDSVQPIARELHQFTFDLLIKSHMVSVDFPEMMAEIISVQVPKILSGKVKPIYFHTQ
# [2] = test system: rat prostate, seminal vesicle, levator ani muscle; experiment: Systemic antiandrogenic activity in orchidectomized immature male rats with DHT implant; type: in vivo; details: for inhibition in vivo at 0.5 mg: Rattus norvegicus, 168 h; for Prostate % inhibition / Lev Ani % inhibition / SV % inhibition: Table 2
# [3] = read-out: Prostate % inhibition, Table 1, rat +DHT, s.c. or p.o. (route not marked in cell), 0.5 mg/animal daily 7 days
# [4] = read-out: SV % inhibition, Table 1, rat +DHT, s.c. or p.o. (route not marked), seminal vesicle, 0.5 mg/animal daily 7 days
# [5] = Mus musculus, read-out: Shionogi Antiandrogenic Activity IC50, Table 1
# [6] = read-out: Lev Ani % inhibition, Table 1, rat +DHT, s.c. or p.o. (route not marked), levator ani, 0.5 mg/animal daily 7 days
# [7] = Mus musculus, read-out: Shionogi Antiandrogenic Activity IC50, Table 2
# [8] = read-out: Lev Ani % inhibition, Table 2, rat +DHT, s.c. or p.o. (route not marked), levator ani, 0.5 mg/animal daily 7 days
# [9] = read-out: Prostate % inhibition, Table 2, rat +DHT, s.c. or p.o. (route not marked), 0.5 mg/animal daily 7 days
# [10] = read-out: SV % inhibition, Table 2, rat +DHT, s.c. or p.o. (route not marked), seminal vesicle, 0.5 mg/animal daily 7 days
# [11] = Mus musculus, Table 2, read-out: Shionogi Antiandrogenic Activity IC50
# [12] = read-out: Prostate % inhibition
# [13] = rat +DHT, s.c. or p.o. (route not marked), 0.5 mg/animal daily 7 days
# [14] = rat +DHT, s.c. or p.o. (route not marked), levator ani, 0.5 mg/animal daily 7 days
# [15] = rat +DHT, s.c. or p.o. (route not marked), seminal vesicle, 0.5 mg/animal daily 7 days
SMILES,Human Androgen Receptor Binding (%) RBA R1881 = 100 (Human Androgen Receptor; Table 1) [%],"inhibition in vivo at 0.5 mg [2, 3] [%]","inhibition in vivo at 0.5 mg [2, 4] [%]","IC50 [1, 5] [nM]","inhibition in vivo at 0.5 mg [2, 6] [%]",Human Androgen Receptor Binding (%) RBA R1881 = 100 (Human Androgen Receptor; Table 2) [%],also measured
"CN(C)Cc1ccc(OCCCN2C(=O)N(c3ccc(C#N)c(C(F)(F)F)c3)C(=O)C2(C)C)cc1 [EM-7334, 4-{3-[3-(4-Dimethylaminomethyl-phenoxy)-propyl]-4,4-dimethyl-2,5-dioxo-imidazolidin-1-yl}-2-trifluoromethyl-benzonitrile]",0.5,14,26,,,,"IC50 ([1]; Mus musculus, Table 1, read-out: Shionogi Antiandrogenic Activity IC50): 118 nM"
CC1(C)C(=O)N(c2ccc(C#N)c(C(F)(F)F)c2)C(=S)N1CCCOc1ccc(CN2CCC(O)C2)cc1 (stereo not drawn) [EM-7365],24.0,22,43,6,19,,
Cc1cc(CN2CCOCC2)ccc1OCCCN1C(=S)N(c2ccc(C#N)c(C(F)(F)F)c2)C(=O)C1(C)C [EM-7366],209.0,26,70,22,16,,
CC1(C)C(=O)N(c2ccc(C#N)c(C(F)(F)F)c2)C(=S)N1CCCOc1ccc(CN2CCC(=O)C2)cc1 [EM-7371],53.0,16,48,15,21,,
Cc1cc(CN2CCCC2)ccc1OCCC1(O)CCN(c2ccc(C#N)c(C(F)(F)F)c2)CC1 [EM-7657],,,,,,3.0,"IC50 [1, 7]: 22 nM; inhibition in vivo at 0.5 mg [2, 8]: 55%; inhibition in vivo at 0.5 mg [2, 9]: 24%; inhibition in vivo at 0.5 mg [2, 10]: 41%"
Cc1cc(CN2CCOCC2)ccc1OCCC1(O)CCN(c2ccc(C#N)c3ccccc23)CC1 [EM-7676],,,,,,0.3,"IC50 [1, 11]: 147 nM; inhibition in vivo at 0.5 mg ([2]; read-out: Lev Ani % inhibition): 0%; inhibition in vivo at 0.5 mg [2, 12]: 0%; inhibition in vivo at 0.5 mg ([2]; read-out: SV % inhibition): 3%"
Cc1cc(CN2CCCC2)ccc1OCCC1(O)CCN(c2ccc(C#N)c(Cl)c2)CC1 [EM-7678],,,,,,3.5,"IC50 [1, 7]: 13.8 nM; Prostate % inhibition [2, 13]: 7%; Lev Ani % inhibition [2, 14]: 9%; SV % inhibition [2, 15]: 10%"
CCC(NC1CCCCC1)c1ccc(COCCN2CCN(c3ccc(C#N)c(C(F)(F)F)c3)CC2)cc1 (stereo not drawn) [EM-7727],,,,,,<1.0,"IC50 [1, 7]: 70.4 nM; inhibition in vivo at 0.5 mg [2, 8]: 0%; inhibition in vivo at 0.5 mg [2, 9]: 0%; inhibition in vivo at 0.5 mg [2, 10]: 8%"
Cc1cc(CN2CCCC2)ccc1OCCC1(O)CCN(c2ccc(C#N)c(Cl)c2)CC1 [EM-7735],,,,,,9.6,"IC50 ([1]; read-out: Shionogi Antiandrogenic Activity IC50, Table 2): 7.9 nM; Prostate % inhibition [2, 13]: 0%; Lev Ani % inhibition [2, 14]: 29%; SV % inhibition [2, 15]: 23%"
CCC(c1ccc(OCCC2(O)CCN(c3ccc(C#N)c4ccccc34)CC2)cc1)N1CCCC1 (stereo not drawn) [EM-7738],,,,,,10.5,"IC50 [1, 11]: 18.3 nM; inhibition in vivo at 0.5 mg ([2]; read-out: Lev Ani % inhibition): 10%; inhibition in vivo at 0.5 mg [2, 12]: 0%; inhibition in vivo at 0.5 mg ([2]; read-out: SV % inhibition): 16%"
Cc1cc(CN2CCCC2)ccc1OCCCN1C(=S)N(c2ccc(C#N)c3ccccc23)C(=O)C1(C)C [EM-7775],13.2,0,25,60.5,10,,
Cc1cc(CN2CCCC2C)ccc1OCCC1(O)CCN(c2ccc(C#N)c(Cl)c2)CC1 (stereo not drawn) [EM-7791],,,,,,1.0,"IC50 [1, 7]: 20.5 nM; inhibition in vivo at 0.5 mg [2, 8]: 14%; inhibition in vivo at 0.5 mg [2, 9]: 0%; inhibition in vivo at 0.5 mg [2, 10]: 29%"
CCC(CC)NC(CC)c1ccc(COCCN2CCN(c3ccc(C#N)c(C(F)(F)F)c3)CC2)cc1 (stereo not drawn) [EM-7792],,,,,,<1.0,"IC50 [1, 7]: 82.9 nM; inhibition in vivo at 0.5 mg [2, 8]: 7%; inhibition in vivo at 0.5 mg [2, 9]: 21%; inhibition in vivo at 0.5 mg [2, 10]: 0%"
CC1(C)C(=O)N(c2ccc(C#N)c(Cl)c2)C(=S)N1CCCOc1ccc(CNC2CCCC2)cc1 [EM-7819],12.9,54,80,8.3,44,,
CN(C)Cc1ccc(OCCCN2C(=S)N(c3ccc(C#N)c(Cl)c3)C(=O)C2(C)C)cc1 [EM-7821],6.1,50,75,5.2,32,,
CC(C)NCc1ccc(OCCCN2C(=S)N(c3ccc(C#N)c(Cl)c3)C(=O)C2(C)C)cc1 [EM-7822],4.9,53,82,5.9,60,,
CC(C)NCc1ccc(OCCCN2C(=S)N(c3ccc(C#N)c(C(F)(F)F)c3)C(=O)C2(C)C)nc1 [EM-7848],0.5,51,86,11.4,68,,
CC(C)NCc1ccc(OCCCN2C(=S)N(c3ccc(C#N)c(C(F)(F)F)c3)C(=O)C2(C)C)c(F)c1 [EM-7918],16.9,44,64,6.6,53,,
CC(C)NCc1ccc(OCCCN2C(=S)N(c3ccc(C#N)c(C(F)(F)F)c3)C(=O)C2(C)C)c(Cl)c1 [EM-7919],29.0,28,53,6.7,9,,
CC(C)NCc1ccc(OCCCN2C(=S)N(c3ccc(C#N)c(C(F)(F)F)c3)C(=O)C2(C)C)cn1 [EM-7926],1.5,44,72,7.9,14,,

# Reference: patent US7709516B2, “Helix 12 directed non-steroidal antiandrogens” (Endorecherche, Inc., priority 2005, dated 2010)
